Experimental data taken from patent US12495798B2, “Nicotinamide compound and herbicidal composition comprising compound” (KOREA RESEARCH INSTITUTE OF CHEMICAL TECHNOLOGY, priority 2019, dated 2025).

Key:
Assay type in all cases: in vivo
quack grass = assay: Herbicidal activity test against upland field weeds (soil treatment test); parameters: key to Soil treatment herbicidal activity, quack grass: 0 (no control); 100 (complete control); details: 50 g ai/ha, scale 0 (no control) to 100 (complete control)
Outline: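 Pre-emergence soil surface spray, day after sowing, into sandy loam pots with fertilizer; compounds at 50 or 75 g a.i./ha in 50% acetone, 0.1% Tween-20. Greenhouse at 30±5 °C, 14/10 h light/dark; visual control rated 0–100 against untreated after 14 days (21 if needed).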

corn [1] = assay: Phytotoxicity test for field crops (soil treatment test); parameters: key: 0 (no harm); 9 (complete withered)
Outline: (§1)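 Crops sown in sterilized horticultural soil (pH 6.1, organic material 1.0%) with mixed fertilizer (N:P:K=17:21:17); one day after sowing, soil sprayed with compound in 33% acetone/0.1% Tween-20 at 19˜300 g a.i./ha. Greenhouse at 30±5° C, 14/10 h light/dark; injury scored visually 0–9 versus untreated control at 10 and 20 days.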

wheat [2] = assay: as above; parameters: key: 0 (no harm); 9 (complete withered)
Outline: as §1

rice [3] = assay: as above; parameters: key: 0 (no harm); 9 (complete withered)
Outline: as §1

soybean [4] = assay: as above; parameters: key: 0 (no harm); 9 (complete withered)
Outline: as §1

cotton [5] = assay: as above; parameters: key: 0 (no harm); 9 (complete withered)
Outline: as §1

corn [6] = assay: Phytotoxicity test for upland field crops (foliar treatment test); parameters: key: 0 (no harm); 9 (complete withered)
Outline: (§2)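 Crops grown in greenhouse pots (30±5 °C, 14/10 h light) were foliar-sprayed with compound at 19–300 g a.i./ha in 33% acetone/0.1% Tween-20. Phytotoxicity scored 0 (no harm) to 9 (complete withering) versus untreated control at 7 and 14 days, 21 if needed.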

wheat [7] = assay: as above; parameters: key: 0 (no harm); 9 (complete withered)
Outline: as §2

rice [8] = assay: as above; parameters: key: 0 (no harm); 9 (complete withered)
Outline: as §2

soybean [9] = assay: as above; parameters: key: 0 (no harm); 9 (complete withered)
Outline: as §2

cotton [10] = assay: as above; parameters: key: 0 (no harm); 9 (complete withered)
Outline: as §2

[11] = 50 g ai/ha, Corn (10 days after treatment)
[12] = 50 g ai/ha, Corn (20 days after treatment)
[13] = 100 g ai/ha, Corn (10 days after treatment)
[14] = 100 g ai/ha, Corn (20 days after treatment)
[15] = 50 g ai/ha, Wheat (10 days after treatment)
[16] = 50 g ai/ha, Wheat (20 days after treatment)
[17] = 100 g ai/ha, Wheat (10 days after treatment)
[18] = 100 g ai/ha, Wheat (20 days after treatment)
[19] = 50 g ai/ha, Rice (10 days after treatment)
[20] = 50 g ai/ha, Rice (20 days after treatment)
[21] = 100 g ai/ha, Rice (10 days after treatment)
[22] = 100 g ai/ha, Rice (20 days after treatment)
[23] = 50 g ai/ha, Soybean (10 days after treatment)
[24] = 50 g ai/ha, Soybean (20 days after treatment)
[25] = 100 g ai/ha, Soybean (10 days after treatment)
[26] = 100 g ai/ha, Soybean (20 days after treatment)
[27] = 50 g ai/ha, Cotton (10 days after treatment)
[28] = 50 g ai/ha, Cotton (20 days after treatment)
[29] = 100 g ai/ha, Cotton (10 days after treatment)
[30] = 100 g ai/ha, Cotton (20 days after treatment)
[31] = 50 g ai/ha, Corn (7 days after treatment)
[32] = 50 g ai/ha, Corn (14 days after treatment)
[33] = 100 g ai/ha, Corn (7 days after treatment)
[34] = 100 g ai/ha, Corn (14 days after treatment)
[35] = 50 g ai/ha, Wheat (7 days after treatment)
[36] = 50 g ai/ha, Wheat (14 days after treatment)
[37] = 100 g ai/ha, Wheat (7 days after treatment)
[38] = 100 g ai/ha, Wheat (14 days after treatment)
[39] = 50 g ai/ha, Rice (7 days after treatment)
[40] = 50 g ai/ha, Rice (14 days after treatment)
[41] = 100 g ai/ha, Rice (7 days after treatment)
[42] = 100 g ai/ha, Rice (14 days after treatment)
[43] = 50 g ai/ha, Soybean (7 days after treatment)
[44] = 50 g ai/ha, Soybean (14 days after treatment)
[45] = 100 g ai/ha, Soybean (7 days after treatment)
[46] = 100 g ai/ha, Soybean (14 days after treatment)
[47] = 50 g ai/ha, Cotton (7 days after treatment)
[48] = 50 g ai/ha, Cotton (14 days after treatment)
[49] = 100 g ai/ha, Cotton (7 days after treatment)
[50] = 100 g ai/ha, Cotton (14 days after treatment)

Cn1nnc(COCc2nc(C(F)(F)C(F)(F)F)ccc2C(=O)Nc2nnnn2C)n1 [Compound No. 2-81, N-(1-methyl-1H-tetrazol-5-yl)-2-(((2-methyl-2H-tetrazol-5-yl)methoxy)methyl)-6-(perfluoroethyl)nicotinamide]
Soil treatment herbicidal activity, quack grass (quack grass): 0
Soil treatment phytotoxicity, Corn (corn [1]; [11]): 0
Soil treatment phytotoxicity, Corn (corn [1]; [12]): 0
Soil treatment phytotoxicity, Corn (corn [1]; [13]): 1
Soil treatment phytotoxicity, Corn (corn [1]; [14]): 0
Soil treatment phytotoxicity, Wheat (wheat [2]; [15]): 0
Soil treatment phytotoxicity, Wheat (wheat [2]; [16]): 0
Soil treatment phytotoxicity, Wheat (wheat [2]; [17]): 0
Soil treatment phytotoxicity, Wheat (wheat [2]; [18]): 0
Soil treatment phytotoxicity, Rice (rice [3]; [19]): 6
Soil treatment phytotoxicity, Rice (rice [3]; [20]): 7
Soil treatment phytotoxicity, Rice (rice [3]; [21]): 8
Soil treatment phytotoxicity, Rice (rice [3]; [22]): 8
Soil treatment phytotoxicity, Soybean (soybean [4]; [23]): 0
Soil treatment phytotoxicity, Soybean (soybean [4]; [24]): 0
Soil treatment phytotoxicity, Soybean (soybean [4]; [25]): 0
Soil treatment phytotoxicity, Soybean (soybean [4]; [26]): 0
Soil treatment phytotoxicity, Cotton (cotton [5]; [27]): 0
Soil treatment phytotoxicity, Cotton (cotton [5]; [28]): 4
Soil treatment phytotoxicity, Cotton (cotton [5]; [29]): 1
Soil treatment phytotoxicity, Cotton (cotton [5]; [30]): 6
Foliar treatment phytotoxicity, Corn (corn [6]; [31]): 2
Foliar treatment phytotoxicity, Corn (corn [6]; [32]): 1
Foliar treatment phytotoxicity, Corn (corn [6]; [33]): 2
Foliar treatment phytotoxicity, Corn (corn [6]; [34]): 1
Foliar treatment phytotoxicity, Wheat (wheat [7]; [35]): 0
Foliar treatment phytotoxicity, Wheat (wheat [7]; [36]): 0
Foliar treatment phytotoxicity, Wheat (wheat [7]; [37]): 0
Foliar treatment phytotoxicity, Wheat (wheat [7]; [38]): 0
Foliar treatment phytotoxicity, Rice (rice [8]; [39]): 5
Foliar treatment phytotoxicity, Rice (rice [8]; [40]): 3
Foliar treatment phytotoxicity, Rice (rice [8]; [41]): 6
Foliar treatment phytotoxicity, Rice (rice [8]; [42]): 5
Foliar treatment phytotoxicity, Soybean (soybean [9]; [43]): 5
Foliar treatment phytotoxicity, Soybean (soybean [9]; [44]): 6
Foliar treatment phytotoxicity, Soybean (soybean [9]; [45]): 6
Foliar treatment phytotoxicity, Soybean (soybean [9]; [46]): 7
Foliar treatment phytotoxicity, Cotton (cotton [10]; [47]): 4
Foliar treatment phytotoxicity, Cotton (cotton [10]; [48]): 9
Foliar treatment phytotoxicity, Cotton (cotton [10]; [49]): 4
Foliar treatment phytotoxicity, Cotton (cotton [10]; [50]): 9

Cn1nnc(COCc2nc(C(F)(F)F)ccc2C(=O)Nc2nnnn2C)n1 [Compound No. 2-59, N-(1-methyl-1H-tetrazol-5-yl)-2-(((2-methyl-2H-tetrazol-5-yl)methoxy)methyl)-6-(trifluoromethyl)nicotinamide]
pest or weed control at 50 g/ha (quack grass): 20%
Soil treatment phytotoxicity, Corn (corn [1]; [11]): 0
Soil treatment phytotoxicity, Corn (corn [1]; [12]): 0
Soil treatment phytotoxicity, Corn (corn [1]; [13]): 0
Soil treatment phytotoxicity, Corn (corn [1]; [14]): 0
Soil treatment phytotoxicity, Wheat (wheat [2]; [15]): 0
Soil treatment phytotoxicity, Wheat (wheat [2]; [16]): 0
Soil treatment phytotoxicity, Wheat (wheat [2]; [17]): 0
Soil treatment phytotoxicity, Wheat (wheat [2]; [18]): 0
Soil treatment phytotoxicity, Rice (rice [3]; [19]): 6
Soil treatment phytotoxicity, Rice (rice [3]; [20]): 8
Soil treatment phytotoxicity, Rice (rice [3]; [21]): 8
Soil treatment phytotoxicity, Rice (rice [3]; [22]): 8
Soil treatment phytotoxicity, Soybean (soybean [4]; [23]): 2
Soil treatment phytotoxicity, Soybean (soybean [4]; [24]): 5
Soil treatment phytotoxicity, Soybean (soybean [4]; [25]): 3
Soil treatment phytotoxicity, Soybean (soybean [4]; [26]): 6
Soil treatment phytotoxicity, Cotton (cotton [5]; [27]): 1
Soil treatment phytotoxicity, Cotton (cotton [5]; [28]): 6
Soil treatment phytotoxicity, Cotton (cotton [5]; [29]): 3
Soil treatment phytotoxicity, Cotton (cotton [5]; [30]): 9
Foliar treatment phytotoxicity, Corn (corn [6]; [31]): 0
Foliar treatment phytotoxicity, Corn (corn [6]; [32]): 2
Foliar treatment phytotoxicity, Corn (corn [6]; [33]): 3
Foliar treatment phytotoxicity, Corn (corn [6]; [34]): 4
Foliar treatment phytotoxicity, Wheat (wheat [7]; [35]): 0
Foliar treatment phytotoxicity, Wheat (wheat [7]; [36]): 0
Foliar treatment phytotoxicity, Wheat (wheat [7]; [37]): 0
Foliar treatment phytotoxicity, Wheat (wheat [7]; [38]): 0
Foliar treatment phytotoxicity, Rice (rice [8]; [39]): 3
Foliar treatment phytotoxicity, Rice (rice [8]; [40]): 4
Foliar treatment phytotoxicity, Rice (rice [8]; [41]): 3
Foliar treatment phytotoxicity, Rice (rice [8]; [42]): 6
Foliar treatment phytotoxicity, Soybean (soybean [9]; [43]): 5
Foliar treatment phytotoxicity, Soybean (soybean [9]; [44]): 7
Foliar treatment phytotoxicity, Soybean (soybean [9]; [45]): 5
Foliar treatment phytotoxicity, Soybean (soybean [9]; [46]): 7
Foliar treatment phytotoxicity, Cotton (cotton [10]; [47]): 3
Foliar treatment phytotoxicity, Cotton (cotton [10]; [48]): 8
Foliar treatment phytotoxicity, Cotton (cotton [10]; [49]): 3
Foliar treatment phytotoxicity, Cotton (cotton [10]; [50]): 9
